Measurements as given in ChEMBL document CHEMBL1201862, “PubChem BioAssay data set” (2004).
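Cells were grown in 96-well plates and exposed to each compound for 48 hours at five concentrations; endpoints were interpolated linearly between bracketing concentrations, or set to the highest concentration if not reached. GI50: concentration for 50% inhibition of growth.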 Calls of active or inactive are those of the source. Rule as the data show it: active = GI50 up to about 1.1 µM and inactive = higher.

Experiments:
Test in all cases: NCI tumour cell line growth inhibition, 48 h
[1] = system: M19-MEL
[2] = system: XF498
[3] = system: SNB-78
[4] = system: RXF 631
[5] = system: DMS-114
[6] = system: DMS-273
[7] = system: HOP-18
[8] = system: DLD-1
[9] = system: KM-20L2

Measured: GI50

CC1=C(C(=O)CC(=O)C(=O)Nc2ccc(Cl)cc2C)Sc2ccccc2N1
inactive: [1] > 100 µM | [2] > 100 µM | [3] > 100 µM | [4] > 100 µM | [5] > 92.7 µM | [6] > 100 µM | [7] > 100 µM | [8] > 100 µM | [9] > 100 µM

N=C(N)NS(=O)(=O)c1ccc(NC(=O)c2cccc3c(Nc4ccc(S(=O)(=O)N=C(N)N)cc4)c4ccccc4nc23)cc1
inactive: [1] 47.4 µM | [2] > 100 µM | [3] 24.8 µM | [4] > 100 µM | [5] 24.9 µM | [6] 55.2 µM | [7] > 100 µM | [8] 92.9 µM | [9] 37.5 µM

C#Cc1cccc(N2C(=O)CCC2=O)c1
inactive: [1] 19.5 µM | [2] 15 µM | [3] 18.5 µM | [4] 21.5 µM | [5] 14.8 µM | [6] 23.2 µM | [7] 16.7 µM | [8] 17.9 µM | [9] 25.8 µM

Clc1cccc(Cl)c1C1SCc2nc3ccccc3n21 (stereo unspecified)
inactive: [1] > 100 µM | [2] > 100 µM | [3] > 100 µM | [4] 15.4 µM | [5] 25.2 µM | [6] 14.6 µM | [7] > 100 µM | [8] 51.1 µM | [9] 43.2 µM
